In patent publication US10947275B2, “Caged cell penetrating peptide-polymer conjugates for diagnostic and therapeutic applications” (Ben-Gurion University of the Negev Research and Development …, priority 2010, dated 2021):

Key:
[1] = test system: B16 cells; experiment: Caging of CPP activity via reversible electrostatic interactions with polyanions, flow cytometry; type: cell-based; details: for mean fluorescence intensity of HPMA-CPP-FITC after pre-treatment with polyanion (masking of CPP activity): polyanion mixed with HPMA-CPP-FITC for 10 min, versus conjugate alone
Method: FIG. 7A-FIG. 7D depict FACS analysis results of B-16 cells incubated with HPMA-CPP-FITC conjugate mixed with different polyanions (Hep, FI, PGA, HA, P-GG, LMWH, Amb) for 10 min, and then added to B16-cell monolayers. Control cells were treated with HPMA-CPP-FITC conjugate only. FIG. 7A depicts results of B-16 cells incubated with HPMA-CPP-FITC conjugate mixed with Hep or FI. FIG. 7B depicts results of B-16 cells incubated with HPMA-CPP-FITC conjugate mixed with PGA or HA. FIG. 7C depicts results of B-16 cells incubated with HPMA-CPP-FITC conjugate mixed with P-GG or LMWH. FIG. 7D depicts results of B-16 cells incubated with HPMA-CPP-FITC conjugate mixed with Amb.
FIG. 8A-FIG. 8D depict FACS analysis results of stability testing of HPMA-CPP-FITC polyanion complexes incubated with B-16 cells at different time points. FIG. 8A depicts results of B-16 cells incubated with a complex of HPMA-CPP-FITC and the polyanion Hep. FIG. 8B depicts results of B-16 cells incubated with a complex of HPMA-CPP-FITC and the polyanion FI. FIG. 8C depicts results of B-16 cells incubated with a complex of HPMA-CPP-FITC and the polyanion LMWH. FIG. 8D depicts results of B-16 cells incubated with a complex of HPMA-CPP-FITC and the polyanion Amb.
FIG. 9A-FIG. 9D depict the reversible masking of CPP activity by polyanion complexes via the addition of protamine. FIG. 9A depicts the reversible masking of CCP activity by polyanion complexes comprising the polyanion fucoidan via the addition or protamine. FIG. 9B depicts the reversible masking of CCP activity by polyanion complexes comprising the polyanion LMWH via the addition or protamine. FIG. 9C depicts the reversible masking of CCP activity by polyanion complexes comprising the polyanion Heparin via the addition or protamine. FIG. 9D depicts the reversible masking of CCP activity by polyanion complexes comprising the polyanion P-GG-OH via the addition or protamine.
FIG. 10 depicts FACS analysis results of polyanion release from HPMA-CPP-FITC complexes by protamine was at the following order: LMWH>P-GG100%>Fl>Hep.
HPMA-CPP-FITC conjugate was mixed with various polyanions such as Polyglutamic acid (PGA); Fucoidan (FI); Heparin sulfate (Hep) Hyaluronic acid (HA); Low molecular weight heparin (LMWH), Amberlite IR120 (Amb) or Polyglycylglycine (P-GG) at a weight ratio of 3:1 or 5:1 in PBS. The solutions were left for 10 min at room temperature to allow HPMA-CPP-FITC-polyanion complex formation, and then added to B16 cell monolayers in growth medium The reversibility of masking the CPP activity in complexes was assessed following the addition of the counter polycation, protamine to the incubation medium. B16 cells were treated with HPMA-CPP-FITC-polyanion complexes for 10 min, and then the counter polycation protamine (4.7 KDa, 10-50 μg/ml, at the same weight ratio of HPMA conjugate) was added to the cells. Control cells were treated with HPMA-CPP-FITC-polyanion complexes without protamin. After 1 h, the cells were washed with PBS, harvested with trypsin and the cell associated fluorescence was analyzed by flow cytometry.
HPMA-CPP-FITC conjugate was mixed with different polyanions (Hep, FI, PGA, HA, P-GG, LMWH, Amb) and then added to B16-cell monolayers and compared to control cells treated with HPMA-CPP-FITC conjugate alone (FIGS. 7A-7D).
The masking of CPP activity by the polyanion complexes was readily reversible following the addition of the polycation, protamine (4.7 KD) (FIGS. 9A-9D). Greater intensity is readily seen in protamine treated (black lines) versus untreated (gray lines) samples.
The efficiency of polyanion release from HPMA-CPP-FITC complexes by protamine was at the following order: LMWH>P-GG100%>FI>Hep (corresponding to outermost versus innermost graphs) (FIG. 10).

[2] = test system: PC-3 cells; experiment: Light-mediated cytotoxicity, MTT assay, illumination time and dose dependence; type: cell-based; details: 80 μM dose (or equivalent dose of M-(cCPP)-KLAK), 15 min of light illumination
Method: FIG. 6A depicts illumination time-dependence and dose-dependence of the viability of PC-3 cells incubated with 80 μM (solid blue), 40 μM (dashed blue), 20 μM (dots blue) M-(cCPP)-KLAK (KLAK equiv), 80 μM KLAK (solid green), and 80 μM M-(cCPP) (solid red), as determined by MIT assay. The results presented are the average of 3 independent experiments, in duplicates. Untreated control cells corresponded to 100% viability. FIG. 6B depicts light-induced cell cytotoxicity of polymer-KLAK conjugates and free KLAK against various cell-types including A431 cells (top left graph), PC-3 cells (top right graph), 3LL cells (bottom left graph) and SW480 cells (bottom right graph). Cells were incubated with 60 μM KLAK equivalent M-(cCPP)-KLAK (dark column), M-(cCPP) (gray column) or 60 μM KLAK (white column) and were illuminated immediately with UV light (365 nm) for 8 minutes followed by 2 hours incubation at 37° C. Cell viability was analyzed by MIT assay.
The cytotoxicity of M-cCPP-KLAK, M-cCPP and o(KIAKLAK) (SEQ ID NO: 5)2, was assessed using a modified 3-(4,5-dimethylthiazol-2-yl)-2,5-diphenyltetrazolinium bromide (MTT). All concentrations of KLAK-HPMA copolymers used for these experiments are expressed in KLAK equivalents. All solutions were sterilized by filtering through a 0.2-μm membrane filter. […] The absorbance of each sample was measured at 570 nm. […]

[3] = Uncaging kinetics of cCPP under UV illumination, HPLC; type: physicochemical; details: cCPP 200 μM, 8 minutes UV illumination (700 μW/cm2; λ=365 nm), HPLC-UV 230 nm
Method: FIG. 2 depicts the uncaging kinetics of cCPP as a function of light illumination time (365 nm) as determined with HPLC.
Uncaging kinetics of cCPP. cCPP (200 μM) was dissolved in 100 μL MOPS buffer at pH=7.4 and exposed to UV light illumination (UV lamp 6 W; =365 nm). Aliquots (30 μL) were removed at various time points, immediately kept frozen, in dark until analyzed by HPLC. The molar fraction of cCPP was calculated from its HPLC peak area.
CPP with 3 Mtt-protected Lys, Ac-KRRMK^MttWK^MttK^Mtt (KRRMKWKXK SEQ ID NO: 6) was synthesized on a solid phase via Fmoc chemistry on a MBHA Resin. CPP was then modified to include 3 photolabile protecting groups on Lys side chains to give the caged CPP (cCPP), Ac-KRRMK^NvocWK^NvocK^Nvoc. The identity and purity (>90%) were determined by HPLC and MALDI-TOF mass spectrometer. In order to study the uncaging kinetics of the peptide, a solution of cCPP (200 μM) was exposed to UV light illumination (700 μW/cm2; λ=365 nm). Aliquots were removed at various time points, and then evaluated by high performance liquid chromatography with UV detection (HPLC-UV) at 230 nm. The molar fraction of cCPP was calculated from its HPLC peak (FIG. 2). 8 minutes of illumination were sufficient to attain >80% of uncaged CPP, and thus further experiments were therefore undertaken with 8-10 min of light illumination. […]

Substance | mean fluorescence intensity of HPMA-CPP-FITC after pre-treatment with polyanion (masking of CPP activity) [1] | order of efficiency of polyanion release from HPMA-CPP-FITC complexes by protamine [1] | toxicity towards PC-3 cells [2] | uncaged CPP attained [3]
Heparin sulfate | significantly reduced | LMWH>P-GG100%>FI>Hep | – | –
Low molecular weight heparin [LMWH] | significantly reduced | LMWH>P-GG100%>FI>Hep | – | –
Levulinic acid-D(KLAKLAK)2 | – | – | no significant toxicity | –
Ac-KRRMK^NvocWK^NvocK^Nvoc [cCPP] | – | – | – | > 80%
Fucoidan [FI] | significantly reduced | LMWH>P-GG100%>FI>Hep | – | –
